In PubChem BioAssay (NCI):
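1) Cells in 96-well plates. 2) Compound, 48 h, 5 concentrations. 3) Linear interpolation between surrounding doses. 4) Unreached endpoint = highest concentration. TGI is the concentration that stops growth completely.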

Key:
Test in all cases: NCI tumour cell line growth inhibition, 48 h
CCRF-CEM leukemia = system: CCRF-CEM leukemia
DLD-1 colon = system: DLD-1 colon
DMS 114 small cell lung = system: DMS 114 small cell lung
DMS 273 small cell lung = system: DMS 273 small cell lung
KM20L2 colon = system: KM20L2 colon
LXFL 529 NSCLC = system: LXFL 529 NSCLC
M19-MEL melanoma = system: M19-MEL melanoma
SK-OV-3 ovarian = system: SK-OV-3 ovarian
SN12C renal = system: SN12C renal
SNB-19 CNS = system: SNB-19 CNS
SNB-78 CNS = system: SNB-78 CNS
HOP-18 NSCLC = system: HOP-18 NSCLC
NCI/ADR-RES ovarian = system: NCI/ADR-RES ovarian
XF 498 CNS = system: XF 498 CNS
RXF-631 renal = system: RXF-631 renal

SMILES | TGI (CCRF-CEM leukemia) [µM] | TGI (DLD-1 colon) [µM] | TGI (DMS 114 small cell lung) [µM] | TGI (DMS 273 small cell lung) [µM] | TGI (KM20L2 colon) [µM] | TGI (LXFL 529 NSCLC) [µM] | TGI (M19-MEL melanoma) [µM] | TGI (SK-OV-3 ovarian) [µM] | TGI (SN12C renal) [µM] | TGI (SNB-19 CNS) [µM] | TGI (SNB-78 CNS) [µM] | TGI (HOP-18 NSCLC) [µM] | TGI (NCI/ADR-RES ovarian) [µM] | TGI (XF 498 CNS) [µM] | TGI (RXF-631 renal) [µM]
CC12NN=NC1C(=O)NC2=O (stereo not drawn) | > 100 | > 100 | > 100 | > 100 | > 100 | > 100 | > 100 | > 100 | > 100 | > 100 | > 100 |  |  |  | 
CCOC(=O)C1=C(O)C(=O)c2ccsc2C1=O | > 100 | > 100 | > 100 | > 100 | > 100 |  | 40.5 | > 100 | > 100 | > 100 | > 100 | > 100 |  |  | 
Cc1cc(=O)[nH]c(NN2C(Cl)C(=O)C2c2ccc(Cl)cc2)n1 (stereo not drawn) | 5.67 |  | 30 | 25.9 | 44.5 | 19.2 | 35.7 | > 100 | 35.7 | 45.2 | 39 | 23.2 | 54.9 |  | 
CCO[C@]12C[C@H](OC)[C@@]3(O)CC(C1[C@H]3OCc1ccccc1)C13C4C2[C@H](OC)C1[C@](COC)(CN4CC)[C@H](O)C[C@@H]3OC (stereo partly drawn) | > 100 | > 100 | > 100 | > 100 | > 100 | > 100 | > 100 | > 100 | > 100 | > 100 | > 100 |  |  | > 100 | 
COc1cc(OC)c(/C=C2\N=C(C)N(Nc3nnc(NN4C(=O)/C(=C/c5c(OC)cc(OC)cc5OC)N=C4C)c4ccccc34)C2=O)c(OC)c1 | > 100 | > 100 | > 100 | > 100 | > 100 | > 100 | > 100 |  | > 100 | > 100 | > 100 | > 100 |  |  | 
CC1=C(N2CC2)C(=O)c2nc3n(c2C1=O)CCC3OC(=O)CCl (stereo not drawn) | 3.65 | 1.58 | 0.512 | 0.128 | 0.547 | 0.227 | 0.266 | 0.29 | 0.267 | 0.684 | 0.6 | 0.178 | 0.0862 | 0.0954 | 
CC(=O)C1=CSC2[C@H](NC(=O)Cc3ccccc3)C(=O)N2C1C(=O)OC(c1ccccc1)c1ccccc1 (stereo partly drawn) | 68.2 | > 100 | > 100 | > 100 |  | > 100 | > 100 | > 100 | > 100 | > 100 | > 100 |  |  | > 100 | > 100
Cn1c(/C=C(\O)c2ccc(Cl)cc2)nc2ccccc21 | > 100 | > 100 |  |  | 95.6 | > 100 | > 100 |  | > 100 | > 100 | > 100 |  |  | > 100 | > 100
O=c1cc(-c2ccccc2)[nH]c2cc(O)ccc12 | 42.6 | 35.7 | 34 | 87.8 | 40.4 | > 100 | 35.3 | 90.7 | 89.6 | > 100 | > 100 | > 100 |  | 50.4 | > 100
CCOC1(COP(=O)(OCc2ccccc2)OCc2ccccc2)COC(COP(=O)(OCc2ccccc2)OCc2ccccc2)(OCC)CO1 (stereo not drawn) | > 100 | > 100 |  | > 100 | > 100 | > 100 | > 100 | > 100 | > 100 | > 100 | > 100 | > 100 |  | > 100 | > 100
CC(C)[C@@H]1NC(=O)[C@H]2N=C(O[C@@H]2C)[C@@H]2CCCN2C(=O)[C@H](Cc2ccccc2)NC(=O)[C@@H]2CSC(=N2)[C@@H](Cc2ccccc2)NC(=O)[C@@H]2CSC1=N2 | > 50 |  |  |  |  |  |  | > 50 | > 50 | > 50 |  |  | > 50 |  | 
CN(CCO)c1nc2c(c(=O)[nH]1)CCC2 | > 100 | > 100 | > 100 | > 100 | > 100 | > 100 | > 100 | > 100 | > 100 | > 100 | > 100 | > 100 |  | > 100 | 
CCOC(=O)CSc1nc(-c2ccccc2)c(C#N)c(=O)[nH]1 | > 100 |  |  |  |  |  |  | > 100 | > 100 | > 100 |  |  | > 100 |  | 
